Common to all, as to format: functional
Experiment [1] relates to Rattus norvegicus. The experiment can be described thus: Antihypertensive activity rating in conscious SHR after 3 hr post dose at 10 mg/kg (po).
Experiment [2] relates to Rattus norvegicus. The experiment can be described thus: Antihypertensive activity rating in conscious SHR after 6 hr post dose at 10 mg/kg (po).
The test system of experiment [3] is Rattus norvegicus. Kind of experiment: Antihypertensive activity rating in conscious SHR after 1 hr post dose at 3 mg/kg (po).
Experiment [4] relates to Rattus norvegicus. Kind of experiment: Antihypertensive activity rating in conscious SHR after 24 hr post dose at 3 mg/kg (po).
Experiment [5] concerns Rattus norvegicus. The experiment can be described thus: Antihypertensive activity rating in conscious SHR after 3 hr post dose at 1 mg/kg (po).
In experiment [6] the test system is Rattus norvegicus. Kind of experiment: Antihypertensive activity rating in conscious SHR after 3 h post dose at 3 mg/kg (po).
The test system of experiment [7] is Rattus norvegicus. The experiment can be described thus: Antihypertensive activity rating in conscious SHR after 6 hr post dose at 1 mg/kg (po).
Experiment [8] has as its system Rattus norvegicus. The experiment can be described thus: Antihypertensive activity rating in conscious SHR after 6 hr post dose at 3 mg/kg (po).
Experiment [9] relates to Rattus norvegicus. The experiment can be described thus: Antihypertensive activity rating in conscious SHR after 1 hr post dose at 1 mg/kg (po).
Experiment [10] deals with Rattus norvegicus. The experiment can be described thus: Maximum percent decrease in blood pressure in SHR dosed at 1 mg/kg (hour post dose in parentheses).
Experiment [11] deals with Rattus norvegicus. Kind of experiment: Maximum percent decrease in blood pressure in SHR dosed at 3 mg/kg (hour post dose in parentheses).
Experiment [12] relates to Rattus norvegicus. Kind of experiment: Antihypertensive activity rating in conscious SHR after 24 hr post dose at 1 mg/kg (po).
Experiment [13] has as its system Rattus norvegicus. Kind of experiment: Antihypertensive activity rating in conscious SHR after 24 hr post dose at 0.3 mg/kg (po).
Experiment [14] has as its system Rattus norvegicus. Kind of experiment: Antihypertensive activity rating in conscious SHR after 3 hr post dose at 0.3 mg/kg (po).
The subject of experiment [15] is Rattus norvegicus. The experiment can be described thus: Antihypertensive activity rating in conscious SHR after 6 hr post dose at 0.3 mg/kg (po).
For experiment [16], the system named is Rattus norvegicus. Kind of experiment: Antihypertensive activity rating in conscious SHR after 1 hr post dose at 0.3 mg/kg (po).
Experiment [17] relates to Rattus norvegicus. Kind of experiment: Maximum percent decrease in blood pressure in SHR dosed at 0.3 mg/kg (hour post dose in parentheses).
The test system of experiment [18] is Rattus norvegicus. Kind of experiment: Antihypertensive activity rating in conscious SHR after 1 hr post dose at 10 mg/kg (po).
The subject of experiment [19] is Rattus norvegicus. The experiment can be described thus: Maximum percent decrease in blood pressure in SHR dosed at 10 mg/kg (hour post dose in parentheses).
The test system of experiment [20] is Rattus norvegicus. The experiment can be described thus: Antihypertensive activity rating in conscious SHR after 24 hr post dose at 10 mg/kg (po).

For the compound `COc1cc2nc(N3CCN(C(=O)/C=C/c4cccc([N+](=O)[O-])c4)CC3)nc(N)c2cc1OC.Cl`, the Activity with Rattus norvegicus [1] and in the experiment with Rattus norvegicus [2] was 0 each time.

With `COc1cc2nc(N3CCN(C(=O)/C(C)=C/c4ccco4)CC3)nc(N)c2cc1OC.Cl`, the Activity stood at 1 with Rattus norvegicus [3]; 0 in the experiment on Rattus norvegicus [4]; 0 with Rattus norvegicus [5]; 0 with Rattus norvegicus [6]; 1 with Rattus norvegicus [7]; 1 with Rattus norvegicus [8]. The Activity with Rattus norvegicus [9] and in the experiment on Rattus norvegicus [12] was 0 in each case. Moreover, the results for the Decrease in the experiment with Rattus norvegicus [10] and in the experiment with Rattus norvegicus [11] were 15% and 16%, respectively.

Turning to `COc1cc2nc(N3CCN(C(=O)/C=C/c4cccs4)CC3)nc(N)c2cc1OC`, the Activity in the experiment on Rattus norvegicus [3] is listed as 2; with Rattus norvegicus [13], 0; in the experiment on Rattus norvegicus [4], 0; in the experiment with Rattus norvegicus [14], 0; in the experiment on Rattus norvegicus [5], 1; with Rattus norvegicus [6], 1. Also, the Activity in the experiment with Rattus norvegicus [15] stood at 1; with Rattus norvegicus [7], 1; in the experiment with Rattus norvegicus [8], 2; in the experiment on Rattus norvegicus [16] it was 0; in the experiment on Rattus norvegicus [9] it was 1; in the experiment on Rattus norvegicus [12], 0. The results for the Decrease with Rattus norvegicus [10], in the experiment with Rattus norvegicus [17] and with Rattus norvegicus [11] were 14%, 10% and 24%, respectively.

Regarding `COc1cc2nc(N3CCN(C(=O)/C=C/c4ccc(Cl)s4)CC3)nc(N)c2cc1OC.Cl`, the Activity with Rattus norvegicus [1], in the experiment on Rattus norvegicus [18] and with Rattus norvegicus [2] was 1 in each case. The Decrease with Rattus norvegicus [19] was 12%.

`COc1cc2nc(N3CCN(C(=O)/C=C/c4ccc(C)s4)CC3)nc(N)c2cc1OC.Cl`: the Activity with Rattus norvegicus [3] is 0; in the experiment on Rattus norvegicus [4] it was 0; in the experiment with Rattus norvegicus [6] it was 1; with Rattus norvegicus [8], 0. In addition, the Decrease in the experiment on Rattus norvegicus [11] was determined as 14%.

As for `COc1cc2nc(N3CCN(C(=O)/C=C/c4ccc(Cl)c(Cl)c4)CC3)nc(N)c2cc1OC`, the Activity with Rattus norvegicus [1] and with Rattus norvegicus [2] was 0 throughout.

Take `COc1cc2nc(N3CCN(C(=O)/C=C/c4ccc(OC)c(OC)c4OC)CC3)nc(N)c2cc1OC`: the Activity is 0 with Rattus norvegicus [20], 1 with Rattus norvegicus [1], 0 in the experiment on Rattus norvegicus [18] and 1 in the experiment with Rattus norvegicus [2]. Besides, the Decrease with Rattus norvegicus [19] is recorded as 16%.

For `COc1cc2nc(N3CCN(C(=O)/C=C/c4ccc(Cl)o4)CC3)nc(N)c2cc1OC.Cl`, the Activity was found to be 1 in the experiment on Rattus norvegicus [3], 0 in the experiment on Rattus norvegicus [4], 1 in the experiment on Rattus norvegicus [6] and 1 with Rattus norvegicus [8]. The Decrease with Rattus norvegicus [11] was 17%.

In the case of `COc1cc2nc(N3CCN(C(=O)/C=C/c4ccccc4C)CC3)nc(N)c2cc1OC`, the Activity in the experiment with Rattus norvegicus [3] stood at 1; in the experiment with Rattus norvegicus [20], 0; in the experiment on Rattus norvegicus [4], 0; with Rattus norvegicus [1], 2; in the experiment with Rattus norvegicus [5], 0; with Rattus norvegicus [6] it was 1. Further, the Activity with Rattus norvegicus [7] is given as 0; with Rattus norvegicus [8] it was 1; in the experiment on Rattus norvegicus [9] it was 1; with Rattus norvegicus [2], 2; with Rattus norvegicus [12] it was 0. For the same compound, the results for the Decrease with Rattus norvegicus [10], with Rattus norvegicus [19] and in the experiment on Rattus norvegicus [11] were 12%, 23% and 18%, respectively.

Consider `COc1cccc(/C=C/C(=O)N2CCN(c3nc(N)c4cc(OC)c(OC)cc4n3)CC2)c1.Cl`, for which the Activity was 0 with Rattus norvegicus [20], 1 in the experiment with Rattus norvegicus [1] and 1 in the experiment on Rattus norvegicus [2]. The Decrease in the experiment with Rattus norvegicus [19] is listed as 12%.

With `COc1cc2nc(N3CCN(C(=O)/C=C/c4ccc(Cl)cc4)CC3)nc(N)c2cc1OC.Cl`, the Activity with Rattus norvegicus [1] was 0; in the experiment with Rattus norvegicus [2], 1. Also, in the experiment on Rattus norvegicus [19], the Decrease came to 10%.

Turning to `COc1cc2nc(N3CCN(C(=O)/C=C/c4cccc(C(F)(F)F)c4)CC3)nc(N)c2cc1OC`, the Activity with Rattus norvegicus [1] and with Rattus norvegicus [2] was 0 throughout.

`COc1cc2nc(N3CCN(C(=O)/C=C/c4ccc(OC(C)C)cc4)CC3)nc(N)c2cc1OC.Cl`: the Activity in the experiment on Rattus norvegicus [20] came out at 0; with Rattus norvegicus [1] it was 1; in the experiment on Rattus norvegicus [18], 0; in the experiment with Rattus norvegicus [2], 1. Further, the Decrease in the experiment on Rattus norvegicus [19] is reported as 19%.

In the case of `CCOc1ccccc1/C=C/C(=O)N1CCN(c2nc(N)c3cc(OC)c(OC)cc3n2)CC1.Cl`, the Activity in the experiment on Rattus norvegicus [1] and in the experiment with Rattus norvegicus [18] was 0 in each case.

Consider `CO.COc1cc(/C=C/C(=O)N2CCN(c3nc(N)c4cc(OC)c(OC)cc4n3)CC2)cc(OC)c1`, for which the Activity in the experiment with Rattus norvegicus [20], with Rattus norvegicus [1], in the experiment with Rattus norvegicus [18] and in the experiment with Rattus norvegicus [2] was 0 each time.

For `COc1cc2nc(N3CCN(C(=O)/C=C/c4cccc(C)c4)CC3)nc(N)c2cc1OC`, the Activity is 0 with Rattus norvegicus [20], 1 in the experiment on Rattus norvegicus [1], 0 in the experiment with Rattus norvegicus [18] and 1 in the experiment on Rattus norvegicus [2]. Besides, the Decrease in the experiment with Rattus norvegicus [19] is on record as 18%.

Turning to `COc1ccccc1/C=C/C(=O)N1CCN(c2nc(N)c3cc(OC)c(OC)cc3n2)CC1.Cl`, the Activity with Rattus norvegicus [1] and in the experiment with Rattus norvegicus [2] was 0 each time.

For `COc1cc2nc(N3CCN(C(=O)/C(C)=C/c4ccccc4)CC3)nc(N)c2cc1OC.Cl`, the Activity in the experiment with Rattus norvegicus [3] was 1; with Rattus norvegicus [4], 0; in the experiment on Rattus norvegicus [5] it was 0; in the experiment on Rattus norvegicus [6], 0; in the experiment with Rattus norvegicus [7] it was 1; with Rattus norvegicus [8] it was 1. Besides, the Activity in the experiment on Rattus norvegicus [9] and with Rattus norvegicus [12] was 0 each time. The Decrease in the experiment on Rattus norvegicus [10] came out at 12%; with Rattus norvegicus [11], 16%.

For `COc1cc2nc(N3CCN(C(=O)/C=C/c4ccoc4)CC3)nc(N)c2cc1OC`, the Activity in the experiment on Rattus norvegicus [3] is reported as 1; in the experiment on Rattus norvegicus [4] it was 0; in the experiment with Rattus norvegicus [6], 1; with Rattus norvegicus [8], 1. Besides, the Decrease in the experiment on Rattus norvegicus [11] is on record as 19%.

Regarding `COc1cc2nc(N3CCN(C(=O)/C=C/c4ccc(C)cc4)CC3)nc(N)c2cc1OC.Cl`, the Activity was found to be 0 with Rattus norvegicus [3], 0 with Rattus norvegicus [4], 1 in the experiment on Rattus norvegicus [6] and 0 in the experiment with Rattus norvegicus [8]. Moreover, the Decrease in the experiment with Rattus norvegicus [11] came out at 10%.

In the case of `COc1cc2nc(N3CCN(C(=O)/C=C/c4ccc(Br)cc4)CC3)nc(N)c2cc1OC.Cl`, the Activity in the experiment on Rattus norvegicus [20] stood at 0; with Rattus norvegicus [1] it was 1; in the experiment on Rattus norvegicus [18], 0; with Rattus norvegicus [2], 1. In the experiment on Rattus norvegicus [19], the Decrease was 12%.

For the compound `COc1cc2nc(N3CCN(C(=O)/C=C/c4sccc4C)CC3)nc(N)c2cc1OC.Cl`, the Activity with Rattus norvegicus [20] worked out at 1; in the experiment on Rattus norvegicus [1], 2; in the experiment on Rattus norvegicus [5], 1; with Rattus norvegicus [7], 1; with Rattus norvegicus [18] it was 2; in the experiment on Rattus norvegicus [9] it was 1. The values for the Activity in the experiment with Rattus norvegicus [2] and with Rattus norvegicus [12] were 2 and 0, respectively. Moreover, the values for the Decrease in the experiment on Rattus norvegicus [10] and in the experiment on Rattus norvegicus [19] were 10% and 25%, respectively.

Regarding `COc1cc2nc(N3CCN(C(=O)/C=C/c4ccc(C)o4)CC3)nc(N)c2cc1OC.Cl`, the Activity in the experiment with Rattus norvegicus [20] turned out to be 0; in the experiment on Rattus norvegicus [1], 2; in the experiment with Rattus norvegicus [5], 0; in the experiment with Rattus norvegicus [7], 0; with Rattus norvegicus [18] it was 1; in the experiment on Rattus norvegicus [9] it was 0. The Activity was 1 with Rattus norvegicus [2] and 0 in the experiment on Rattus norvegicus [12]. Moreover, the Decrease in the experiment with Rattus norvegicus [19] is recorded as 22%.

On to `COc1cc2nc(N3CCN(C(=O)/C=C/c4ccc(C(C)C)cc4)CC3)nc(N)c2cc1OC`, for which the Activity with Rattus norvegicus [1] and with Rattus norvegicus [2] was 0 in each case.

`COc1cc2nc(N3CCN(C(=O)/C(C)=C/c4cccs4)CC3)nc(N)c2cc1OC.Cl`: the Activity in the experiment on Rattus norvegicus [3] was 3; in the experiment with Rattus norvegicus [4] it was 0; in the experiment with Rattus norvegicus [5] it was 1; in the experiment with Rattus norvegicus [6] it was 1; in the experiment on Rattus norvegicus [7], 0; with Rattus norvegicus [8], 1. In addition, the Activity is listed as 1 in the experiment on Rattus norvegicus [9] and 0 with Rattus norvegicus [12]. The Decrease in the experiment with Rattus norvegicus [10] was found to be 14%; with Rattus norvegicus [11], 34%.

With `COc1ccc(/C=C/C(=O)N2CCN(c3nc(N)c4cc(OC)c(OC)cc4n3)CC2)cc1`, the Activity in the experiment on Rattus norvegicus [3] worked out at 0; in the experiment with Rattus norvegicus [20], 0; with Rattus norvegicus [4], 0; in the experiment on Rattus norvegicus [1], 2; in the experiment with Rattus norvegicus [5], 1; with Rattus norvegicus [6], 1. The Activity in the experiment with Rattus norvegicus [7] is reported as 1; in the experiment on Rattus norvegicus [8] it was 2; in the experiment on Rattus norvegicus [18], 1; in the experiment on Rattus norvegicus [9] it was 0; in the experiment with Rattus norvegicus [2] it was 2; in the experiment on Rattus norvegicus [12], 0. The Decrease in the experiment with Rattus norvegicus [10] is recorded as 15%; with Rattus norvegicus [19], 23%; in the experiment with Rattus norvegicus [11], 20%.

The record behind these values is ChEMBL document CHEMBL1122489, “Pyrimidine derivatives. 4. Synthesis and antihypertensive activity of 4-amino-2-(4-cinnamoylpiperazino)-6,7-dimethoxyquinazoline derivatives” (J Med Chem, 1983).
